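Assay format: 96-well plates, 48-hour exposure. At the TGI there is no net growth.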
How the values were obtained:
Experiment in all cases: DTP human tumour cell line panel, 48 h
[1] = test system: 786-0 renal
[2] = test system: A498 renal
[3] = test system: A549 NSCLC
[4] = test system: ACHN renal
[5] = test system: BT-549 breast
[6] = test system: CAKI-1 renal
[7] = test system: CCRF-CEM leukemia
[8] = test system: COLO 205 colon
[9] = test system: DU-145 prostate
[10] = test system: EKVX NSCLC
[11] = test system: HCC-2998 colon
[12] = test system: HCT-116 colon
[13] = test system: HCT-15 colon
[14] = test system: HL-60(TB) leukemia
[15] = test system: HOP-62 NSCLC
[16] = test system: HOP-92 NSCLC
[17] = test system: HS 578T breast
[18] = test system: HT29 colon
[19] = test system: IGROV1 ovarian
[20] = test system: K-562 leukemia
[21] = test system: KM12 colon
[22] = test system: LOX IMVI melanoma
[23] = test system: M14 melanoma
[24] = test system: MALME-3M melanoma
[25] = test system: MCF7 breast
[26] = test system: MDA-MB-231 breast
[27] = test system: MDA-MB-435
[28] = test system: MDA-N
[29] = test system: MOLT-4 leukemia
[30] = test system: NCI-H23 lung
[31] = test system: NCI-H460 lung
[32] = test system: NCI-H522 lung
[33] = test system: NCI/ADR-RES ovarian
[34] = test system: OVCAR-3 ovarian
[35] = test system: OVCAR-5 ovarian
[36] = test system: OVCAR-8 ovarian
[37] = test system: PC-3 prostate
[38] = test system: RPMI-8226 leukemia
[39] = test system: RXF 393 renal
[40] = test system: SF-268 CNS
[41] = test system: SF-295 CNS
[42] = test system: SF-539 CNS
[43] = test system: SK-MEL-2 melanoma
[44] = test system: SK-MEL-28 melanoma
[45] = test system: SK-MEL-5 melanoma
[46] = test system: SK-OV-3 ovarian
[47] = test system: SN12C renal
[48] = test system: SNB-19 CNS
[49] = test system: SNB-75 CNS
[50] = test system: SR leukemia
[51] = test system: SW-620 colon
[52] = test system: T-47D breast
[53] = test system: TK-10 renal
[54] = test system: U251 CNS
[55] = test system: UACC-257 melanoma
[56] = test system: UACC-62 melanoma
[57] = test system: UO-31 renal
[58] = test system: NCI-H226 lung
[59] = test system: OVCAR-4 ovarian

Structure (SMILES): COc1ccc(OC)c2sc(N3C(=O)/C(=C/c4cccc([N+](=O)[O-])c4)N=C3c3ccccc3)nc12
- TGI [1]: > 100 µM
- TGI [2]: > 100 µM
- TGI [3]: > 100 µM
- TGI [4]: > 100 µM
- TGI [5]: > 100 µM
- TGI [6]: > 100 µM
- TGI [7]: 78.2 µM
- TGI [8]: > 100 µM
- TGI [9]: > 100 µM
- TGI [10]: > 100 µM
- TGI [11]: > 100 µM
- TGI [12]: > 100 µM
- TGI [13]: > 100 µM
- TGI [14]: 59.4 µM
- TGI [15]: > 100 µM
- TGI [16]: > 100 µM
- TGI [17]: > 100 µM
- TGI [18]: > 100 µM
- TGI [19]: > 100 µM
- TGI [20]: 63.7 µM
- TGI [21]: > 100 µM
- TGI [22]: 62.1 µM
- TGI [23]: > 100 µM
- TGI [24]: > 100 µM
- TGI [25]: 48.9 µM
- TGI [26]: > 100 µM
- TGI [27]: 58.3 µM
- TGI [28]: > 100 µM
- TGI [29]: 47.4 µM
- TGI [30]: > 100 µM
- TGI [31]: > 100 µM
- TGI [32]: > 100 µM
- TGI [33]: > 100 µM
- TGI [34]: > 100 µM
- TGI [35]: > 100 µM
- TGI [36]: > 100 µM
- TGI [37]: > 100 µM
- TGI [38]: 61.2 µM
- TGI [39]: > 100 µM
- TGI [40]: > 100 µM
- TGI [41]: > 100 µM
- TGI [42]: > 100 µM
- TGI [43]: > 100 µM
- TGI [44]: > 100 µM
- TGI [45]: > 100 µM
- TGI [46]: > 100 µM
- TGI [47]: > 100 µM
- TGI [48]: > 100 µM
- TGI [49]: > 100 µM
- TGI [50]: 70.3 µM
- TGI [51]: 95.2 µM
- TGI [52]: 64.2 µM
- TGI [53]: > 100 µM
- TGI [54]: > 100 µM
- TGI [55]: > 100 µM
- TGI [56]: > 100 µM
- TGI [57]: > 100 µM

Structure (SMILES): COC(=O)C1(O)C(c2ccccc2)=NC2(C)CCCC21 (stereo unspecified)
- TGI [1]: > 100 µM
- TGI [2]: > 100 µM
- TGI [3]: > 100 µM
- TGI [5]: > 100 µM
- TGI [6]: > 100 µM
- TGI [7]: > 100 µM
- TGI [8]: > 100 µM
- TGI [9]: > 100 µM
- TGI [11]: > 100 µM
- TGI [12]: > 100 µM
- TGI [13]: > 100 µM
- TGI [15]: > 100 µM
- TGI [16]: > 100 µM
- TGI [17]: > 100 µM
- TGI [18]: > 100 µM
- TGI [19]: > 100 µM
- TGI [20]: > 100 µM
- TGI [21]: > 100 µM
- TGI [22]: > 100 µM
- TGI [23]: > 100 µM
- TGI [24]: > 100 µM
- TGI [26]: > 100 µM
- TGI [27]: > 100 µM
- TGI [28]: > 100 µM
- TGI [29]: > 100 µM
- TGI [58]: > 100 µM
- TGI [30]: > 100 µM
- TGI [31]: > 100 µM
- TGI [32]: > 100 µM
- TGI [33]: > 100 µM
- TGI [34]: > 100 µM
- TGI [59]: > 100 µM
- TGI [35]: > 100 µM
- TGI [36]: > 100 µM
- TGI [37]: > 100 µM
- TGI [38]: > 100 µM
- TGI [39]: > 100 µM
- TGI [40]: > 100 µM
- TGI [41]: > 100 µM
- TGI [43]: > 100 µM
- TGI [44]: > 100 µM
- TGI [45]: > 100 µM
- TGI [46]: > 100 µM
- TGI [47]: > 100 µM
- TGI [48]: > 100 µM
- TGI [49]: > 100 µM
- TGI [50]: > 100 µM
- TGI [51]: > 100 µM
- TGI [52]: > 100 µM
- TGI [53]: > 100 µM
- TGI [54]: > 100 µM
- TGI [55]: > 100 µM
- TGI [56]: > 100 µM
- TGI [57]: > 100 µM
